# Measured values from PubChem BioAssay AID2060500 (Molecular Pharmacology Branch, DTP, NCI, 2025).
# Test system: 596521-263-R-J1-PDC complex spheroids, viability % of control
# Assay: Anticancer human tumor 596521-263-R-J1-PDC patient-derived soft tissue sarcoma cell line growth inhibition [GQUAD]
# Details: for IC50: curve of first compound; for viability, T/C: stronger effect = lower value
# Outline: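 Tumor cells were grown as complex spheroids with HUVEC endothelial cells and mesenchymal stem cells as stroma. G-quadruplex stabilizers were combined with targeted agents over half-log dilutions from near the clinical Cmax, or from 10 microM.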
# 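Note: spheroids exposed to drugs for 7 days before viability reading.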
# 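Throughout, for viability, T/C: 100% = DMSO vehicle control viability.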
structure (smiles),measurement,setting,value
C=CC(=O)N1CCN(c2nc(=O)n(-c3c(C)ccnc3C(C)C)c3nc(-c4c(O)cccc4F)c(F)cc23)C(C)C1 (configuration not stated) + Cc1[nH]c2ccc(F)cc2c1-c1nc2c3cccnc3c3ncccc3c2[nH]1,IC50,second compound 0.0316 µM,> 10 µM
same,IC50,second compound 0.1 µM,> 10 µM
same,IC50,second compound 0.316 µM,> 10 µM
same,IC50,second compound 1 µM,> 10 µM
same,IC50,second compound 3.16 µM,> 10 µM
same,IC50,second compound 10 µM,> 10 µM
same,"viability, T/C","second compound 0.0316 µM, first compound 0.0316 µM",91.6%
same,"viability, T/C","second compound 0.0316 µM, first compound 0.1 µM",102%
same,"viability, T/C","second compound 0.0316 µM, first compound 0.316 µM",98%
same,"viability, T/C","second compound 0.0316 µM, first compound 1 µM",100%
same,"viability, T/C","second compound 0.0316 µM, first compound 3.16 µM",103%
same,"viability, T/C","second compound 0.0316 µM, first compound 10 µM",69.3%
same,"viability, T/C","second compound 0.1 µM, first compound 0.0316 µM",97%
same,"viability, T/C","second compound 0.1 µM, first compound 0.1 µM",97.1%
same,"viability, T/C","second compound 0.1 µM, first compound 0.316 µM",95.2%
same,"viability, T/C","second compound 0.1 µM, first compound 1 µM",107%
same,"viability, T/C","second compound 0.1 µM, first compound 3.16 µM",90.8%
same,"viability, T/C","second compound 0.1 µM, first compound 10 µM",67.8%
same,"viability, T/C","second compound 0.316 µM, first compound 0.0316 µM",91.5%
same,"viability, T/C","second compound 0.316 µM, first compound 0.1 µM",108%
same,"viability, T/C","second compound 0.316 µM, first compound 0.316 µM",89.5%
same,"viability, T/C","second compound 0.316 µM, first compound 1 µM",99.7%
same,"viability, T/C","second compound 0.316 µM, first compound 3.16 µM",89.8%
same,"viability, T/C","second compound 0.316 µM, first compound 10 µM",67%
same,"viability, T/C","second compound 1 µM, first compound 0.0316 µM",95.6%
same,"viability, T/C","second compound 1 µM, first compound 0.1 µM",82.5%
same,"viability, T/C","second compound 1 µM, first compound 0.316 µM",99.8%
same,"viability, T/C","second compound 1 µM, first compound 1 µM",97.5%
same,"viability, T/C","second compound 1 µM, first compound 3.16 µM",90.8%
same,"viability, T/C","second compound 1 µM, first compound 10 µM",75.8%
same,"viability, T/C","second compound 3.16 µM, first compound 0.0316 µM",90.7%
same,"viability, T/C","second compound 3.16 µM, first compound 0.1 µM",88.2%
same,"viability, T/C","second compound 3.16 µM, first compound 0.316 µM",91.9%
same,"viability, T/C","second compound 3.16 µM, first compound 1 µM",95.1%
same,"viability, T/C","second compound 3.16 µM, first compound 3.16 µM",90.8%
same,"viability, T/C","second compound 3.16 µM, first compound 10 µM",73.3%
same,"viability, T/C","second compound 10 µM, first compound 0.0316 µM",71%
same,"viability, T/C","second compound 10 µM, first compound 0.1 µM",72%
same,"viability, T/C","second compound 10 µM, first compound 0.316 µM",83.1%
same,"viability, T/C","second compound 10 µM, first compound 1 µM",72.1%
same,"viability, T/C","second compound 10 µM, first compound 3.16 µM",85.3%
same,"viability, T/C","second compound 10 µM, first compound 10 µM",56.4%
